Several values for one entry are separate records, joined by “and”; a condition that tells them apart may be missing. Identical values can stand only once.
How the values were obtained:
[1] = tested on: post-surgical adhesion formation; assay: Post-surgical adhesion formation in mice, all groups co-treated with 1,3-dipropyl-8-(p-sulfophenyl)xanthine (Example 2); format: in vivo; details: for adhesion score (mean±standard error of mean): scale 1 to 5; for adhesion scores (individual animals): one value per mouse
Description: (§1) This protocol examined the effects of several treatments on post-surgical adhesion formation. Six-week-old C57Bl mice were fasted overnight and then anesthetized the following day with an intraperitoneal injection of pentobarbital (50 mg/kg). The surgical procedures were conducted under aseptic conditions. The abdomen was shaved to remove hair, and the incision site was cleaned with betadine solution. Surgery was performed under a laminar flow hood using instruments sterilized in a glass bead sterilizer. The abdomen was opened via a midline incision of approximately 10 mm. The cecum was exposed and placed on sterile gauze. […] After 30 seconds, the ethanol was washed from the cecum surface with 1-ml of test solution. Next, the cecum was returned to the peritoneal cavity and placed in its natural position. Then 1-ml of test solution was placed in the peritoneal cavity, and the abdominal incision was repaired by suturing. […] The animals were placed under a warming lamp and observed until they regained consciousness. After regaining consciousness, the mice were placed back in the housing cage.
Ten days later, the animals were again anesthetized with pentobarbital, and the abdomen was surgically opened to provide a clear view of the intestines. The severity of adhesion formation was assessed on a semi-quantitative scale from 1 to 5, taking into account the extent of adhesion formation (with 1 being the least amount of adhesion formation and 5 being the most amount of adhesion formation). Adhesions were identified visually and by noting the difficulty of separating adjacent surfaces. Adhesion scores were assigned by an individual blinded to (that is unaware of) the test solutions used to treat the animals. The scoring was based on the extent of adhesion of the cecum to itself and to adjacent tissues or organs. A score of 1 was assigned to animals when there was only minimal (approximately >10 to <20%) adhesion of the cecum to itself (that is within the cecum core) with no adhesion of the cecum to other adjacent structures (abdominal wall, liver or intestines). A score of 2 was assigned when there was mild (approximately >20 to <30%) adhesion of the cecum to itself or when there was minimal (approximately >10 to <20%) adhesion of the cecum to itself but in addition minimal adhesion of the cecum to adjacent structures. A score of 3 was assigned to animals when the adhesion of the cecum to itself was moderate (approximately >30 to <50%), in the absence or presence of minimal adhesion of the cecum to adjacent structures. A score of 4 was assigned to animals when the adhesion of the cecum to itself was severe (approximately >60 to <80%) or when there was moderate adhesion to adjacent structures or both. A score of 5 was assigned to animals when adhesion of the cecum to itself was so extensive that it existed as one entity (complete adhesion within itself) or when there was severe adhesion of the cecum to itself but in addition severe adhesion of the cecum to adjacent structures.

[2] = tested on: P1 adenosine receptor subtypes (A1, A2A, A2B and A3); details: at 1 mM; cited from earlier work
[3] = tested on: post-surgical adhesion formation; assay: Post-surgical abdominal adhesion formation after cecum injury in mice (Example 1); format: in vivo, C57Bl mice; details: for adhesion score compared with saline control group or other treatments (Fisher's Least Significant Difference test): post-hoc analysis, Example 1; for adhesion score (mean±standard error of mean): 1 ml wash + 1 ml in peritoneal cavity, scored ten days later; for adhesion scores for all mice (individual animals): one value per mouse
Description: as §1, with “cage. Ten days later, the animals were again anesthetized with pentobarbital, and the abdomen was surgically opened to provide a clear view of the intestines. […] Adhesions were identified visually and by noting the difficulty of separating adjacent surfaces. Adhesion scores were assigned by an individual blinded to (that is unaware of) the test solutions used to treat the animals. The scoring was based on the extent of adhesion of the cecum to itself and to adjacent tissues or organs. […] In this example, there were six groups that were treated with test solutions containing chemical agents of interest. In addition, there was a seventh group (the control group) in which the test solution was only the vehicle in which the chemical agents of interest were dissolved. The vehicle for all six test solutions was 0.9% saline, so the seventh group (control group) received only 0.9% saline as the test solution.” for “cage.”

[4] = From the text: However, there are serious limitations with regard to using adenosine for this purpose that preclude an optimal anti-adhesive efficacy. […] Dis Colon Rectum. […] Consequently the time-concentration profile of adenosine in the surgical field cannot be optimized.
[5] = scale 1 to 5, 75 millimoles/L in 0.9% saline

concentration of stable aqueous solutions (aqueous solubility) [4] [millimoles/L] | SMILES | efficacy in inhibiting formation of post-surgical abdominal adhesions (in words) ([3]; 75 millimoles/L) | adhesion score compared with saline control group or other treatments (Fisher's Least Significant Difference test) [3] | adhesion score (mean±standard error of mean) [3, 5] | also measured
 | CCCn1c(=O)c2[nH]c(-c3ccc(S(=O)(=O)O)cc3)nc2n(CCC)c1=O [1,3-dipropyl-8-(p-sulfophenyl)xanthine] |  |  |  | adhesion score (mean±standard error of mean) ([1]; 1,3-dipropyl-8-(p-sulfophenyl)xanthine 1 mM + saline only (group headed Saline)): 4.75±0.22; adhesion scores (individual animals) ([1]; 1,3-dipropyl-8-(p-sulfophenyl)xanthine 1 mM + saline only): 5 (3×) and 4; blockade of adenosine receptor subtypes [2]: blocks all four P1 adenosine receptor subtypes
 | Nc1ncnc2c1ncn2[C@@H]1O[C@H](CO)[C@@H](O)[C@H]1OP(=O)(O)O [2′-adenosine monophosphate] | nearly inactive | only slightly less than | 4.08±0.15 | adhesion scores for all mice (individual animals) ([3]; scale 1 to 5, 75 millimoles/L, listed as 2′-AMP): 4 (9×) and 3 and 5 (2×)
 | Nc1ncnc2c1ncn2[C@@H]1O[C@H](CO)[C@@H](OP(=O)(O)O)[C@H]1O [3′-adenosine monophosphate] | nearly inactive | only slightly less than | 4.00±0.17 | adhesion scores for all mice (individual animals) ([3]; scale 1 to 5, 75 millimoles/L, listed as 3′-AMP): 4 (8×) and 3 (2×) and 5 (2×)
> 75 | Nc1ncnc2c1ncn2[C@@H]1O[C@H](COP(=O)(O)O)[C@@H](O)[C@H]1O [5′-adenosine monophosphate] | nearly inactive | only slightly less than | 3.82±0.18 | adhesion scores for all mice (individual animals) ([3]; scale 1 to 5, 75 millimoles/L, listed as 5′-AMP): 4 (7×) and 3 (3×) and 5
≤ 23 | Nc1ncnc2c1ncn2[C@@H]1O[C@H](CO)[C@@H](O)[C@H]1O [Adenosine] |  |  |  | adhesion scores (individual animals) ([1]; 23 mM + 1,3-dipropyl-8-(p-sulfophenyl)xanthine 1 mM): 4 (3×) and 5; adhesion score (mean±standard error of mean) ([1]; 23 millimoles/L + 1,3-dipropyl-8-(p-sulfophenyl)xanthine 1 mM): 4.25±0.22; adhesion score compared with the saline group (Fisher's Least Significant Difference test) ([1]; in presence of 1,3-dipropyl-8-(p-sulfophenyl)xanthine 1 mM): did not significantly reduce; adhesion score (mean±standard error of mean) ([3]; scale 1 (least) to 5 (most), 23 millimoles/L in 0.9% saline): 3.08±0.15; adhesion scores for all mice (individual animals) ([3]; scale 1 to 5, 23 millimoles/L): 3 (9×) and 4 (2×) and 2
